Assay results published in article PMC3659552 (Journal of Ginseng Research, 2011).

Target: AChE (acetylcholineserase)
Test: Ellman spectrophotometric assay, […] nm
Assay type: biochemical, Electrophorus electricus
Conditions: acetylthiocholine iodide substrate; pH 8.0; 10 min preincubation

Nc1c2c(nc3ccccc13)CCCC2 [tacrine]
IC50: 825 nM
